Where only a bound is given, the exact number is not on record here.

The assay has as its target T1, HDAC6 (Homo sapiens, UniProt Q9UBN7).
T1 sequence (Q9UBN7 1-1215): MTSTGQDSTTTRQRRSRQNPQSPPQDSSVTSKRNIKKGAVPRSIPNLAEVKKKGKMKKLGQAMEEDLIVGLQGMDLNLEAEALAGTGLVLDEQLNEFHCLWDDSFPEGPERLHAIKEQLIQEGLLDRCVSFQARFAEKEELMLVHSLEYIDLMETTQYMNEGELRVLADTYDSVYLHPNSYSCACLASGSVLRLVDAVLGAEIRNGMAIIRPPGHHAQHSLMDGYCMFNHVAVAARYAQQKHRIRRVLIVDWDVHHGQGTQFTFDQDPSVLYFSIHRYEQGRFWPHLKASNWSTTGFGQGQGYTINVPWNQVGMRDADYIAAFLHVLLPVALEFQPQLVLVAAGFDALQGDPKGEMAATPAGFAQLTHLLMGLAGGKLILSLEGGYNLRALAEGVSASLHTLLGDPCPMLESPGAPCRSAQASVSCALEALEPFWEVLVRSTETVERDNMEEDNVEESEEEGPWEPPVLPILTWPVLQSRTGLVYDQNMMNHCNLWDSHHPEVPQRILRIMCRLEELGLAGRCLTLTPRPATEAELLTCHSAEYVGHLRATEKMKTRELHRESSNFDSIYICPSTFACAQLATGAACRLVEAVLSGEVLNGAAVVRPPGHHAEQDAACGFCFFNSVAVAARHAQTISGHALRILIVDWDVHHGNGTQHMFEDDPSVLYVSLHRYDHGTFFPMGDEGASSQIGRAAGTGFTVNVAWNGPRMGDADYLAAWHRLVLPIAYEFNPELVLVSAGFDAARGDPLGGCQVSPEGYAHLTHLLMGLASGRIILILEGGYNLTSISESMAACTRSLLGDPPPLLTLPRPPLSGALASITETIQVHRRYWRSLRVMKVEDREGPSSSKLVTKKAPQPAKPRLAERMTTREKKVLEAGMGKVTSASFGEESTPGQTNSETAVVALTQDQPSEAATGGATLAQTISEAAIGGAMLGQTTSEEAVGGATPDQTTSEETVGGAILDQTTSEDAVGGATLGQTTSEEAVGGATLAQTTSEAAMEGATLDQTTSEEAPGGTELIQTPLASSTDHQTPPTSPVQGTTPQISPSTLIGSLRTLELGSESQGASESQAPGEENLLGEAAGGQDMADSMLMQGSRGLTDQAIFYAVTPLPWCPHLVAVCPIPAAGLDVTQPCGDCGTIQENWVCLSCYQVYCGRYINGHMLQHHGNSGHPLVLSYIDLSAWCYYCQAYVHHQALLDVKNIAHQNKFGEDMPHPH
Description: In vitro histone deacetylase assay: enzymatic HDAC6 electrophoretic mobility shift assay. The assay is classed as biochemical. The settings on record: full length human recombinant HDAC6, 1 nM enzyme, 2 μM peptide substrate RHKK(Ac)-NH2, 25° C.; read-out: Inhibitory Concentration (IC50) Values for Representative Compounds against HDAC6, Activity Range. How it is done: The enzymatic HDAC6 assay was performed using electrophoretic mobility shift assay. […] The enzymatic reactions were assembled in 384 well plates in a total volume of 25 μL in a reaction buffer composing: 100 mM HEPES, pH7.5, 25 mM KCl, 0.1% bovine serum albumin, 0.01% Triton X-100, 1% DMSO (from compounds) 2 μM of the fluorescently labeled peptide substrate and enzyme. The enzyme was added at a final concentration of 1 nM. The peptide substrate RHKK(Ac)-NH2 was used. The compounds were tested at 12 concentrations spaced by 3× dilution intervals. Negative control samples (0%-inhibition in the absence of inhibitor) and positive control samples (100%-inhibition) were assembled in replicates of four in each assay plate. The reactions were incubated at 25° C. and quenched by the addition of 45 μL of termination buffer (100 mM HEPES, pH 7.5, 0.01% Triton X-100, 0.05% SDS).
The terminated assay plates were analyzed on LabChip® 3000 microfluidic electrophoresis instrument (Perkin Elmer/Caliper Life Sciences). The fluorescence intensity of the electrophoretically separated de-acetylated product and substrate peptide was measured. Activity in each sample was determined as the product to sum ratio (PSR): P/(S+P), where P is the peak height of the product peptide and S is the peak height of the substrate peptide. Percent inhibition (Pinh) is determined using the following equation:
Pinh=(PSR0%−PSRinh)/(PSR0%−PSR100%)*100, where PSRinh is the product sum ratio in the presence of inhibitor, PSR0% is the average product sum ration in the absence of inhibitor and PSR100% is the average product sum ratio in 100%-inhibition control samples. The IC50 values of inhibitors were determined by fitting the %-inhibition curves with 4 parameter dose-response model using XLfit 4 software.
On the technique in general: In EMSA bound probe runs differently from free probe, usually more slowly.
`C[C@@H]1CN(C)Cc2ccc(C(=O)NO)cc2O1` [(R)—N-hydroxy-2,4-dimethyl-2,3,4,5-tetrahydrobenzo[f][1,4]oxazepine-8-carboxamide]: the IC50 is greater than 0.5 µM.
Consider `C[C@H]1COc2cc(C(=O)NO)ccc2CN1c1ccccc1F` [(S)-4-(2-fluorophenyl)-N-hydroxy-3-methyl-2,3,4,5-tetrahydrobenzo[f][1,4]oxazepine-8-carboxamide], for which the IC50 is no more than 0.1 µM.
The result for `O=C(NO)c1ccc2c(c1)CN(c1nc3ccccc3[nH]1)CCO2` reads 0.1 to 0.5 µM.
In the case of `O=C1CN(Cc2ccc(-n3cccn3)cc2)Cc2cc(C(=O)NO)ccc2N1`, the IC50 was no more than 0.1 µM.
`COCCNC(=O)N1Cc2ccc(C(=O)NO)cc2OC[C@@H]1C` [(S)-N8-hydroxy-N4-(2-methoxyethyl)-3-methyl-2,3-dihydrobenzo[f][1,4]oxazepine-4,8(5H)-dicarboxamide]: the IC50 is no more than 0.1 µM.
For the compound `C[C@H]1COc2cc(C(=O)NO)ccc2CN1C(=O)N(C)c1ccccc1` [(S)-N8-hydroxy-N4,3-dimethyl-N4-phenyl-2,3-dihydrobenzo[f][1,4]oxazepine-4,8(5H)-dicarboxamide], the IC50 is 0.1 to 0.5 µM.
`C[C@H]1COc2cc(C(=O)NO)ccc2CN1C(=O)OC1CCCC1` [cyclopentyl(S)-8-(hydroxycarbamoyl)-3-methyl-2,3-dihydrobenzo[f][1,4]oxazepine-4(5H)-carboxylate]: the IC50 is no more than 0.1 µM.
With `O=C(NO)c1ccc2c(c1)OCCNC2` [N-hydroxy-2,3,4,5-tetrahydrobenzo[f][1,4]oxazepine-8-carboxamide], the IC50 lay in the range of 0.1 to 0.5 µM.
The figure for `O=C(NO)c1ccc2c(c1)OCCN(C(=O)N1Cc3ccccc3C1)C2` [N-hydroxy-4-(isoindoline-2-carbonyl)-2,3,4,5-tetrahydrobenzo[f][1,4]oxazepine-8-carboxamide] is no more than 0.1 µM; for `C[C@H]1COc2cc(C(=O)NO)ccc2CN1c1ccccn1` [(S)-N-hydroxy-3-methyl-4-(pyridin-2-yl)-2,3,4,5-tetrahydrobenzo[f][1,4]oxazepine-8-carboxamide] it is no more than 0.1 µM; for `O=C(NO)c1ccc2c(c1)OCCN(c1nc3ccccc3n1CC1CCCCC1)C2` it is 0.1 to 0.5 µM.
With `CC(C)(C)Oc1ccc(CN2CC(=O)Nc3ccc(C(=O)NO)cc3C2)cc1`, the IC50 lay within 0.1 to 0.5 µM.
For `C[C@H]1COc2cc(C(=O)NO)ccc2CN1C(=O)Oc1ccc(F)cc1` [4-fluorophenyl(S)-8-(hydroxycarbamoyl)-3-methyl-2,3-dihydrobenzo[f][1,4]oxazepine-4(5H)-carboxylate], the IC50 was no more than 0.1 µM.
With `O=C1CN(Cc2coc(-c3cccc(F)c3)n2)Cc2cc(C(=O)NO)ccc2N1`, the IC50 is no more than 0.1 µM.
With `CN(C)Cc1cccc(CN2CC(=O)Nc3ccc(C(=O)NO)cc3C2)c1`, the IC50 was greater than 0.5 µM.
Take `COc1ccc(CN2CCOc3cc(C(=O)NO)ccc3C2)cn1`: the IC50 fell in the range of 0.1 to 0.5 µM.
Turning to `CN1Cc2ccc(C(=O)NO)cc2OCC12CC2` [N-hydroxy-4-methyl-4,5-dihydro-2H-spiro[benzo[f][1,4]oxazepine-3,1′-cyclopropane]-8-carboxamide], the IC50 is no more than 0.1 µM.
Turning to `COc1ccc(CN2CCOc3cc(C(=O)NO)ccc3C2)nc1`, the IC50 is 0.1 to 0.5 µM.
As for `CN(C(=O)N1CCOc2cc(C(=O)NO)ccc2C1)c1ccccc1`, the IC50 was greater than 0.5 µM.
For the compound `C[C@H]1COc2cc(C(=O)NO)ccc2CN1C(=O)Nc1cccnc1` [(S)-N8-hydroxy-3-methyl-N4-(pyridin-3-yl)-2,3-dihydrobenzo[f][1,4]oxazepine-4,8(5H)-dicarboxamide], the IC50 is no more than 0.1 µM.
With `C[C@H]1COc2cc(C(=O)NO)ccc2CN1C(=O)N1C[C@@H]2CC[C@@H](C1)O2` [(S)-4-((1S,5S)-8-oxa-3-azabicyclo[3.2.1]octane-3-carbonyl)-N-hydroxy-3-methyl-2,3,4,5-tetrahydrobenzo[f][1,4]oxazepine-8-carboxamide], the IC50 was no more than 0.1 µM.
In the case of `CCN1Cc2ccc(C(=O)NO)cc2OC[C@@H]1C` [(S)-4-ethyl-N-hydroxy-3-methyl-2,3,4,5-tetrahydrobenzo[f][1,4]oxazepine-8-carboxamide], the IC50 is 0.1 to 0.5 µM.
The result for `C[C@H]1COc2cc(C(=O)NO)ccc2CN1C(=O)Nc1ccccc1` [(S)-N8-hydroxy-3-methyl-N4-phenyl-2,3-dihydrobenzo[f][1,4]oxazepine-4,8(5H)-dicarboxamide] reads no more than 0.1 µM.
On to `COC[C@H]1COc2cc(C(=O)NO)ccc2CN1c1ccccc1C` [(S)-N-hydroxy-3-(methoxymethyl)-4-(o-tolyl)-2,3,4,5-tetrahydrobenzo[f][1,4]oxazepine-8-carboxamide], for which the IC50 is no more than 0.1 µM.
Turning to `COc1ccc(CN2CCN(C)c3ccc(C(=O)NO)cc3C2)cc1`, the IC50 is greater than 0.5 µM.
Consider `CC(C)[C@H]1COc2cc(C(=O)NO)ccc2CN1c1ccccn1` [(S)-N-hydroxy-3-isopropyl-4-(pyridin-2-yl)-2,3,4,5-tetrahydrobenzo[f][1,4]oxazepine-8-carboxamide], for which the IC50 is no more than 0.1 µM.
The figure for `O=C1CN(Cc2ccccc2)Cc2cc(C(=O)NO)ccc2N1` [4-benzyl-N-hydroxy-2-oxo-2,3,4,5-tetrahydro-1H-benzo[e][1,4]diazepine-7-carboxamide] is 0.1 to 0.5 µM; for `N#Cc1ccc(N2CCOc3cc(C(=O)NO)ccc3C2)cc1C(F)(F)F` it is 0.1 to 0.5 µM.
On to `CC(C)[C@@H]1COc2cc(C(=O)NO)ccc2CN1c1ccccc1`, for which the IC50 was 0.1 to 0.5 µM.
For `COc1ccc(NC(=O)N2Cc3ccc(C(=O)NO)cc3O[C@@H](C)C2)cc1`, the IC50 was no more than 0.1 µM.
`COc1ccc(CN2CCOc3cc(C(=O)NO)ccc3C2)cc1`: the IC50 lay within 0.1 to 0.5 µM.
The result for `C[C@H]1COc2cc(C(=O)NO)ccc2CN1c1ccccc1Cl` [(S)-4-(2-chlorophenyl)-N-hydroxy-3-methyl-2,3,4,5-tetrahydrobenzo[f][1,4]oxazepine-8-carboxamide] reads no more than 0.1 µM; that for `COc1ccccc1N1Cc2ccc(C(=O)NO)cc2OC[C@@H]1C` [(S)-N-hydroxy-4-(2-methoxyphenyl)-3-methyl-2,3,4,5-tetrahydrobenzo[f][1,4]oxazepine-8-carboxamide], no more than 0.1 µM; that for `COc1ccc(S(=O)(=O)N2Cc3ccc(C(=O)NO)cc3OC[C@@H]2C)cc1`, 0.1 to 0.5 µM.
For the compound `COc1ccc(CN2CCOc3ccc(C(=O)NO)cc3C2C)cc1` (stereo not drawn), the IC50 is greater than 0.5 µM.
For `C[C@H]1COc2cc(C(=O)NO)ccc2CN1C(=O)N(C)C1CCOCC1` [(S)-N8-hydroxy-N4,3-dimethyl-N4-(tetrahydro-2H-pyran-4-yl)-2,3-dihydrobenzo[f][1,4]oxazepine-4,8(5H)-dicarboxamide], the IC50 was no more than 0.1 µM.
The result for `COC[C@@H]1COc2cc(C(=O)NO)ccc2CN1C` [(R)-N-hydroxy-3-(methoxymethyl)-4-methyl-2,3,4,5-tetrahydrobenzo[f][1,4]oxazepine-8-carboxamide] reads no more than 0.1 µM; that for `COC[C@H]1COc2cc(C(=O)NO)ccc2CN1C` [(S)-N-hydroxy-3-(methoxymethyl)-4-methyl-2,3,4,5-tetrahydrobenzo[f][1,4]oxazepine-8-carboxamide], no more than 0.1 µM.
The result for `COc1ccc(CN2CC(=O)Nc3ccc(C(=O)NO)cc3C2)cc1` reads 0.1 to 0.5 µM.

For the origin of these results see patent publication US11279681B2, “3-alkyl bicyclic [4,5,0] hydroxamic acids as HDAC inhibitors” (Valo Health, Inc., priority 2015, dated 2022).
